Assay results as given in PubChem BioAssay (NCI).
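Values below derive from 48-hour exposures of cells grown in 96-well plates, with endpoints linearly interpolated between the two concentrations bracketing the appropriate inhibition level. GI50 marks 50% less growth. Definition used: TGI = concentration required for complete inhibition of growth.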

Key:
Assay in all cases: NCI-60 cell line screen, 48 h
A498 renal = tested on: A498 renal
HOP-92 NSCLC = tested on: HOP-92 NSCLC
SR leukemia = tested on: SR leukemia
CAKI-1 renal = tested on: CAKI-1 renal
SN12C renal = tested on: SN12C renal
EKVX NSCLC = tested on: EKVX NSCLC
SK-OV-3 ovarian = tested on: SK-OV-3 ovarian
NCI-H522 lung = tested on: NCI-H522 lung
UACC-62 melanoma = tested on: UACC-62 melanoma
786-0 renal = tested on: 786-0 renal
OVCAR-5 ovarian = tested on: OVCAR-5 ovarian
SNB-75 CNS = tested on: SNB-75 CNS
COLO 205 colon = tested on: COLO 205 colon
SF-295 CNS = tested on: SF-295 CNS
KM12 colon = tested on: KM12 colon
NCI-H226 lung = tested on: NCI-H226 lung
ACHN renal = tested on: ACHN renal
HCC-2998 colon = tested on: HCC-2998 colon
IGROV1 ovarian = tested on: IGROV1 ovarian
MDA-MB-468 breast = tested on: MDA-MB-468 breast
BT-549 breast = tested on: BT-549 breast
MALME-3M melanoma = tested on: MALME-3M melanoma
CCRF-CEM leukemia = tested on: CCRF-CEM leukemia
RXF 393 renal = tested on: RXF 393 renal
A549 NSCLC = tested on: A549 NSCLC
MDA-MB-231 breast = tested on: MDA-MB-231 breast
HCT-15 colon = tested on: HCT-15 colon
UO-31 renal = tested on: UO-31 renal
LOX IMVI melanoma = tested on: LOX IMVI melanoma
SK-MEL-5 melanoma = tested on: SK-MEL-5 melanoma
PC-3 prostate = tested on: PC-3 prostate
MOLT-4 leukemia = tested on: MOLT-4 leukemia
SF-268 CNS = tested on: SF-268 CNS
HOP-62 NSCLC = tested on: HOP-62 NSCLC
T-47D breast = tested on: T-47D breast
U251 CNS = tested on: U251 CNS
SK-MEL-28 melanoma = tested on: SK-MEL-28 melanoma
HL-60(TB) leukemia = tested on: HL-60(TB) leukemia
TK-10 renal = tested on: TK-10 renal
MDA-MB-435 = tested on: MDA-MB-435
OVCAR-3 ovarian = tested on: OVCAR-3 ovarian
NCI-H23 lung = tested on: NCI-H23 lung
RPMI-8226 leukemia = tested on: RPMI-8226 leukemia
SNB-19 CNS = tested on: SNB-19 CNS
SW-620 colon = tested on: SW-620 colon
OVCAR-8 ovarian = tested on: OVCAR-8 ovarian
K-562 leukemia = tested on: K-562 leukemia
UACC-257 melanoma = tested on: UACC-257 melanoma
NCI-H460 lung = tested on: NCI-H460 lung
DU-145 prostate = tested on: DU-145 prostate
HT29 colon = tested on: HT29 colon
MCF7 breast = tested on: MCF7 breast
HS 578T breast = tested on: HS 578T breast
OVCAR-4 ovarian = tested on: OVCAR-4 ovarian
HCT-116 colon = tested on: HCT-116 colon
M14 melanoma = tested on: M14 melanoma
SF-539 CNS = tested on: SF-539 CNS

With `CCC(C)(C)c1ccc(OCCCCCCN2CCN(c3ccncc3)CC2)cc1` the GI50 (A498 renal) was 17.9 µM, the TGI (A498 renal) was 34.6 µM and the GI50 (HOP-92 NSCLC) was 2.17 µM. For the same molecule, the TGI (HOP-92 NSCLC) was 15.4 µM, the GI50 (SR leukemia) was 2.13 µM and the TGI (SR leukemia) was 9.38 µM. The GI50 (CAKI-1 renal) was 4.97 µM, the TGI (CAKI-1 renal) was 18.6 µM and the GI50 (SN12C renal) was 10.2 µM. For the same molecule, the TGI (SN12C renal) was 22.4 µM, the GI50 (EKVX NSCLC) was 4.14 µM and the TGI (EKVX NSCLC) was 16.5 µM. It also gave a GI50 (SK-OV-3 ovarian) of 14.4 µM, a TGI (SK-OV-3 ovarian) of 29.8 µM and a GI50 (NCI-H522 lung) of 11.8 µM. For the same molecule, the TGI (NCI-H522 lung) was 26.5 µM, the GI50 (UACC-62 melanoma) was 11.8 µM and the TGI (UACC-62 melanoma) was 24.9 µM. The GI50 (786-0 renal) was 1.67 µM, the TGI (786-0 renal) was 3.15 µM and the GI50 (OVCAR-5 ovarian) was 13.4 µM. For the same molecule, the TGI (OVCAR-5 ovarian) was 26.2 µM, the GI50 (SNB-75 CNS) was 8.03 µM and the TGI (SNB-75 CNS) was 22.4 µM. It also gave a GI50 (COLO 205 colon) of 1.66 µM, a TGI (COLO 205 colon) of 3.33 µM and a GI50 (SF-295 CNS) of 1.9 µM. The TGI (SF-295 CNS) was 3.74 µM, the GI50 (KM12 colon) was 4.17 µM and the TGI (KM12 colon) was 15.9 µM. It also gave a GI50 (NCI-H226 lung) of 10.6 µM, a TGI (NCI-H226 lung) of 23.7 µM and a GI50 (ACHN renal) of 6.33 µM. For the same molecule, the TGI (ACHN renal) was 19.5 µM, the GI50 (HCC-2998 colon) was 1.87 µM and the TGI (HCC-2998 colon) was 3.5 µM. For the same molecule, the GI50 (IGROV1 ovarian) was 10.8 µM, the TGI (IGROV1 ovarian) was 24.4 µM and the GI50 (MDA-MB-468 breast) was 1.76 µM. It also gave a TGI (MDA-MB-468 breast) of 3.65 µM, a GI50 (BT-549 breast) of 3.07 µM and a TGI (BT-549 breast) of 12.2 µM. It also gave a GI50 (MALME-3M melanoma) of 5.26 µM, a TGI (MALME-3M melanoma) of 17.3 µM and a GI50 (CCRF-CEM leukemia) of 2.02 µM. The TGI (CCRF-CEM leukemia) was 10.3 µM, the GI50 (RXF 393 renal) was 1.89 µM and the TGI (RXF 393 renal) was 8.42 µM. The GI50 (A549 NSCLC) was 10.6 µM, the TGI (A549 NSCLC) was 26.6 µM and the GI50 (MDA-MB-231 breast) was 3.16 µM. The TGI (MDA-MB-231 breast) was 12.2 µM, the GI50 (HCT-15 colon) was 1.75 µM and the TGI (HCT-15 colon) was 3.88 µM. The GI50 (UO-31 renal) was 10 µM, the TGI (UO-31 renal) was 22.1 µM and the GI50 (LOX IMVI melanoma) was 1.81 µM. The TGI (LOX IMVI melanoma) was 3.4 µM, the GI50 (SK-MEL-5 melanoma) was 1.79 µM and the TGI (SK-MEL-5 melanoma) was 3.58 µM. For the same molecule, the GI50 (PC-3 prostate) was 3.63 µM, the TGI (PC-3 prostate) was 16.2 µM and the GI50 (MOLT-4 leukemia) was 3.14 µM. The TGI (MOLT-4 leukemia) was 10.1 µM, the GI50 (SF-268 CNS) was 11.8 µM and the TGI (SF-268 CNS) was 27.9 µM. The GI50 (HOP-62 NSCLC) was 6.77 µM, the TGI (HOP-62 NSCLC) was 23.8 µM and the GI50 (T-47D breast) was 2.63 µM. For the same molecule, the TGI (T-47D breast) was 8.12 µM, the GI50 (U251 CNS) was 3.06 µM and the TGI (U251 CNS) was 11.8 µM. For the same molecule, the GI50 (SK-MEL-28 melanoma) was 3.71 µM, the TGI (SK-MEL-28 melanoma) was 13.3 µM and the GI50 (HL-60(TB) leukemia) was 1.68 µM. For the same molecule, the TGI (HL-60(TB) leukemia) was 4.06 µM, the GI50 (TK-10 renal) was 14.6 µM and the TGI (TK-10 renal) was 28.7 µM. The GI50 (MDA-MB-435) was 2.5 µM, the TGI (MDA-MB-435) was 8.34 µM and the GI50 (OVCAR-3 ovarian) was 3.86 µM. For the same molecule, the TGI (OVCAR-3 ovarian) was 16.2 µM, the GI50 (NCI-H23 lung) was 3.65 µM and the TGI (NCI-H23 lung) was 14 µM. It also gave a GI50 (RPMI-8226 leukemia) of 2.06 µM, a TGI (RPMI-8226 leukemia) of 4.98 µM and a GI50 (SNB-19 CNS) of 8.19 µM. The TGI (SNB-19 CNS) was 22.2 µM, the GI50 (SW-620 colon) was 1.66 µM and the TGI (SW-620 colon) was 3.69 µM. The GI50 (OVCAR-8 ovarian) was 10.2 µM, the TGI (OVCAR-8 ovarian) was 30.1 µM and the GI50 (K-562 leukemia) was 1.52 µM. It also gave a TGI (K-562 leukemia) of 6.8 µM, a GI50 (UACC-257 melanoma) of 10.7 µM and a TGI (UACC-257 melanoma) of 23.8 µM. It also gave a GI50 (NCI-H460 lung) of 2.08 µM, a TGI (NCI-H460 lung) of 4.77 µM and a GI50 (DU-145 prostate) of 5.27 µM. For the same molecule, the TGI (DU-145 prostate) was 17.6 µM, the GI50 (HT29 colon) was 2.49 µM and the TGI (HT29 colon) was 8.86 µM. It also gave a GI50 (MCF7 breast) of 1.73 µM, a TGI (MCF7 breast) of 3.95 µM and a GI50 (HS 578T breast) of 7.73 µM. The TGI (HS 578T breast) was 26.9 µM, the GI50 (OVCAR-4 ovarian) was 6.33 µM and the TGI (OVCAR-4 ovarian) was 21 µM. The GI50 (HCT-116 colon) was 1.6 µM, the TGI (HCT-116 colon) was 3.85 µM and the GI50 (M14 melanoma) was 1.58 µM. It also gave a TGI (M14 melanoma) of 3.39 µM, a GI50 (SF-539 CNS) of 1.84 µM and a TGI (SF-539 CNS) of 3.91 µM.
